Laboratory results reported in patent publication US10030016B2 (Sunesis Pharmaceuticals, Inc., priority 2009, dated 2018).
pEC50, pIC50: −log10 of the molar value. Structures can show the parent of a compound that is named as a salt. Where two headings read alike, the source gives them in different places.

How the values were obtained:
PDK1 = PDK1 (Homo sapiens (Human), UniProt O15530); assay: PDK1 kinase assay (coupled PDK1/AKT/FAM-crosstide assay, IMAP fluorescence polarization); assay type: biochemical; conditions: inhibition of phospo-PDK1 in vitro
Outline: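 Inhibition is derived by 4-parameter fitting of ΔmP from an IMAP fluorescence polarization read of FAM-crosstide (100 nM) phosphorylation. The cascade ran 30 min at 25 °C with 40 μM ATP, using insect-cell GST-PDK1 51-359 (0.75 nM) driving 10 nM unphosphorylated AKT2 140-467-PIFtide fusion.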

[1] = tested on: phospho-akt (Thr308) in PC-3 cells; assay: Inhibition of phospho-akt (Thr308) in PC-3 cells, MSD phospho-akt 308 ELISA kit; assay type: cell-based; conditions: Homo sapiens, inhibition of P308 Akt in PC-3 cells, 2 hours, no serum, MSD, read-out: EC50
Outline: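 PC-3 cells (15,000/well, overnight in 10% FBS medium) treated 2 h with three-fold diluted compounds in serum-free medium; DMSO high and 5 μM wortmannin low controls. Lysates captured on BSA-blocked MSD plates overnight at 4 °C, then 1 h antibody detection at RT; phospho-Akt Thr308 read by MSD electrochemiluminescence.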

Chain of PDK1 (O15530 51-359): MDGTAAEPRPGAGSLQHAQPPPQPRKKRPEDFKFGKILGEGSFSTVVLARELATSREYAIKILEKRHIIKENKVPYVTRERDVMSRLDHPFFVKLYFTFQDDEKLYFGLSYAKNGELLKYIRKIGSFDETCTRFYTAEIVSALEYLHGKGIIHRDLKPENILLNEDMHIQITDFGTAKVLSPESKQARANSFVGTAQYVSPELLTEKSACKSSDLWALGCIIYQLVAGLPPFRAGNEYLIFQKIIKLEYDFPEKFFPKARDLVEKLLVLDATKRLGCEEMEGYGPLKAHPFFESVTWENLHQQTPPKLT

SMILES	pIC50 (PDK1)	pEC50 [1]	pEC50 ([1]; PC-3, 2 h)
Nc1ncnc2ccc(-c3ccc(CNc4nccnc4C(=O)Nc4ccc(F)c(F)c4)s3)cc12 [Example 3.72, 3-({[5-(4-aminoquinazolin-6-yl)thiophen-2-yl]methyl}amino)-N-(3,4-difluorophenyl)pyrazine-2-carboxamide (TFA salt)]	< 5.30	< 5.00	
C[C@H](NC(=O)c1nccnc1NCc1ccc(-c2ccc3ncnc(N)c3c2)s1)c1ccc(F)c(F)c1 [Example 3.77, 3-({[5-(4-aminoquinazolin-6-yl)thiophen-2-yl]methyl}amino)-N-[(1S)-1-(3,4-difluorophenyl)ethyl] pyrazine-2-carboxamide (TFA salt)]	> 7.00	> 6.00	
C[C@H](NC(=O)c1nccnc1NCc1ccc(-c2cc3c(N)ncnc3cn2)s1)c1ccc(F)c(F)c1 [Example 3.78, 3-({[5-(4-aminopyrido[3,4-d]pyrimidin-6-yl)thiophen-2-yl]methyl}amino)-N-[(1S)-1-(3,4-difluorophenyl)ethyl] pyrazine-2-carboxamide (TFA salt)]	6.00 to 7.00	> 6.00	
C[C@H](NC(=O)c1nccnc1NCc1ccc(-c2cc3c(N)ncnc3cn2)s1)c1ccc(F)cc1 [Example 3.79, 3-({[5-(4-aminopyrido[3,4-d]pyrimidin-6-yl)thiophen-2-yl]methyl}amino)-N-[(1S)-1-(4-fluorophenyl)ethyl] pyrazine-2-carboxamide (TFA salt)]	6.00 to 7.00		> 6.00
CN(Cc1ccc(F)c(F)c1)C(=O)c1nccnc1NCc1ccc(-c2ccc3ncnc(N)c3c2)s1 [Example 3.84, 3-({[5-(4-aminoquinazolin-6-yl)thiophen-2-yl]methyl}amino)-N-(3,4-difluorobenzyl)-N-methylpyrazine-2-carboxamide (TFA salt)]	6.00 to 7.00	5.00 to 6.00	
Nc1ncnc2ccc(-c3ccc(CNc4ncccc4C(=O)Nc4cc(F)cc(F)c4)s3)cc12 [Example 3.85, 2-({[5-(4-aminoquinazolin-6-yl)thiophen-2-yl]methyl}amino)-N-(3,5-difluorophenyl)-pyridine-3-carboxamide (TFA salt)]	5.30 to 6.00		< 5.00
C[C@H](NC(=O)c1cnccc1NCc1ccc(-c2ccc3ncnc(N)c3c2)s1)c1ccc(F)c(F)c1 [Example 3.86]	5.30 to 6.00	< 5.00	
C[C@H](NC(=O)c1c(NCc2ccc(-c3ccc4ncnc(N)c4c3)s2)ncc(Br)c1N)c1ccc(F)c(F)c1 [Example 3.87]	5.30 to 6.00	< 5.00	
CC(C)Oc1cc(CNc2ncccc2C(=O)Nc2ccc(F)c(F)c2)cc(-c2c[nH]c3ncc(C(=O)NC4CC4)cc23)c1 [Example 4.1.1, N-cyclopropyl-3-(3-((3-(3,4-difluorophenylcarbamoyl)pyridin-2-ylamino)methyl)-5-isopropoxyphenyl)-1H-pyrrolo[2,3-b]pyridine-5-carboxamide]	6.00 to 7.00	< 5.00	
CC(C)Oc1cc(CNc2ncccc2C(=O)Nc2ccc(C(F)(F)F)cc2)cc(-c2c[nH]c3ncc(C(=O)NC4CC4)cc23)c1 [Example 4.1.2]	< 5.30	< 5.00	
CC(C)Oc1cc(CNc2ncccc2C(=O)NCc2ccc(F)c(F)c2)cc(-c2c[nH]c3ncc(C(=O)NC4CC4)cc23)c1 [Example 4.1.3, N-cyclopropyl-3-{3-[({3-[(3,4-difluoro-benzyl)carbamoyl]pyridin-2-yl}amino)methyl]-5-(propan-2-yloxy)phenyl}-1H-pyrrolo[2,3-b] pyridine-5-carboxamide]	> 7.00	> 6.00	
CC(C)Oc1cc(CNc2ncccc2C(=O)NCc2cccc(F)c2)cc(-c2c[nH]c3ncc(C(=O)NC4CC4)cc23)c1 [Example 4.1.4, N-cyclopropyl-3-{3-[({3-[(3-fluorobenzyl)carbamoyl]pyridin-2-yl}amino)methyl]-5-(propan-2-yloxy)phenyl}-1H-pyrrolo [2,3-b]pyridine-5-carboxamide]	> 7.00	5.00 to 6.00	
CC(C)Oc1cc(CNc2ncccc2C(=O)NCC(F)(F)F)cc(-c2c[nH]c3ncc(C(=O)NC4CC4)cc23)c1 [Example 4.1.5, N-cyclopropyl-3-{3-(propan-2-yloxy)-5-[({3-[(2,2,2-trifluoroethyl)carbamoyl]pyridin-2-yl}amino)methyl]phenyl}-1H-pyrrolo[2,3-b] pyridine-5-carboxamide]	< 5.30	< 5.00	

More lines, now with the values ahead:

pIC50 (PDK1)	pEC50 [1]	pEC50 ([1]; PC-3, 2 h)	SMILES
> 7.00	5.00 to 6.00		Nc1ncnc2ccc(-c3ccc(CNc4nccnc4C(=O)NCc4cccc(F)c4)s3)cc12 [Example 3.73, 3-({[5-(4-aminoquinazolin-6-yl)thiophen-2-yl]methyl}amino)-N-(3-fluorobenzyl) pyrazine-2-carboxamide (TFA salt)]
6.00 to 7.00	< 5.00		Nc1ncnc2ccc(-c3ccc(CNc4nccnc4C(=O)NCc4cccc(F)c4F)s3)cc12 [Example 3.74, 3-({[5-(4-aminoquinazolin-6-yl)thiophen-2-yl]methyl}amino)-N-(2,3-difluorobenzyl)pyrazine-2-carboxamide (TFA salt)]
> 7.00	< 5.00		Nc1ncnc2ccc(-c3ccc(CNc4nccnc4C(=O)NCc4ccc(F)cc4F)s3)cc12 [Example 3.75, 3-({[5-(4-aminoquinazolin-6-yl)thiophen-2-yl]methyl}amino)-N-(2,4-difluorobenzyl)pyrazine-2-carboxamide (TFA salt)]
> 7.00	> 6.00		Nc1ncnc2ccc(-c3ccc(CNc4nccnc4C(=O)NCc4cc(F)cc(F)c4)s3)cc12 [Example 3.76, 3-({[5-(4-aminoquinazolin-6-yl)thiophen-2-yl]methyl}amino)-N-(3,5-difluorobenzyl)pyrazine-2-carboxamide (TFA salt)]
6.00 to 7.00	> 6.00		N#Cc1cnc(NCc2ccc(-c3ccc4ncnc(N)c4c3)s2)c(C(=O)NCc2ccc(F)c(F)c2)n1 [Example 3.80, 3-(((5-(4-aminoquinazolin-6-yl)thiophen-2-yl)methyl)amino)-6-cyano-N-(3,4-difluorobenzyl)pyrazine-2-carboxamide (TFA salt)]
> 7.00	> 6.00		Cn1cnc2cnc3ccc(-c4ccc(CNc5ncc(C#N)nc5C(=O)NCc5ccc(F)c(F)c5)s4)cc3c21 [Example 3.81, 6-cyano-N-(3,4-difluorobenzyl)-3-(((5-(1-methyl-1H-imidazo [4,5-c]quinolin-8-yl)thiophen-2-yl)methyl)amino)pyrazine-2-carboxamide (TFA salt)]
> 7.00	> 6.00		Cn1cnc2cnc3ccc(-c4ccc(CNc5ncc(C#N)nc5C(=O)NCc5ccc(F)cc5)s4)cc3c21 [Example 3.82, 6-cyano-N-(4-fluorobenzyl)-3-(((5-(1-methyl-1H-imidazo [4,5-c]quinolin-8-yl)thiophen-2-yl)methyl)amino)pyrazine-2-carboxamide (TFA salt)]
> 7.00	> 6.00		N#Cc1cnc(NCc2ccc(-c3ccc4ncnc(N)c4c3)s2)c(C(=O)NCc2ccc(F)cc2)n1 [Example 3.83, 3-(((5-(4-aminoquinazolin-6-yl)thiophen-2-yl)methyl)amino)-6-cyano-N-(4-fluorobenzyl)pyrazine-2-carboxamide (TFA salt)]
